Experimental data reported in ChEMBL document CHEMBL3392990, “Multifunctional coumarin derivatives: monoamine oxidase B (MAO-B) inhibition, anti-β-amyloid (Aβ) aggregation and metal chelation properties against Alzheimer's disease” (Bioorg Med Chem Lett, 2015).

Tests used:
[1] = Permeability of the compound after 16 hrs by PAMPA; type: ADME; conditions: read-out: Peff
[2] = biological target: Amyloid-beta precursor protein (Homo sapiens) (UniProt P05067); experiment: Inhibition of amyloid beta (1 to 42) (unknown origin) self-induced aggregation at 20 uM after 46 to 48 hrs by thioflavin-T fluorescence method
[3] = biological target: T1, Amine oxidase [flavin-containing] B (Homo sapiens, UniProt P27338); experiment: Inhibition of human recombinant MAO-B using p-tyramine as substrate assessed as H2O2 production after 15 mins by fluorescence assay
T1 sequence (P27338 whole entry): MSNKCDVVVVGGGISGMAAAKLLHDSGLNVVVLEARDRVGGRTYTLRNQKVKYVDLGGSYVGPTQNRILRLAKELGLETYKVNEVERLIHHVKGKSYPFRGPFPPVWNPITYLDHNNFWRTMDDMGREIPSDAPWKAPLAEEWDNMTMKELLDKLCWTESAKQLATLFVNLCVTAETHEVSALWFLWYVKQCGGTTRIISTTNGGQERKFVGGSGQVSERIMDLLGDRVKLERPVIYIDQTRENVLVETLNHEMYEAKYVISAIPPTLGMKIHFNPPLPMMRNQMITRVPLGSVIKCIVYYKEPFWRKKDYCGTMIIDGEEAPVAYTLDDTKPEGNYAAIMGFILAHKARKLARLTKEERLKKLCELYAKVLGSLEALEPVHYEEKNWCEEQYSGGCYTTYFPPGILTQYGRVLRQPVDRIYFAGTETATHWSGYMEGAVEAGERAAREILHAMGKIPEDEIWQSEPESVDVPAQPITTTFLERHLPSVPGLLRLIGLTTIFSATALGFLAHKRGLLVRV

[4] = biological target: T2, Amine oxidase [flavin-containing] A (Homo sapiens, UniProt P21397); experiment: Inhibition of human recombinant MAO-A using p-tyramine as substrate assessed as H2O2 production at 100 uM after 15 mins by fluorescence assay; conditions: 0.25 h
T2 sequence (P21397 whole entry): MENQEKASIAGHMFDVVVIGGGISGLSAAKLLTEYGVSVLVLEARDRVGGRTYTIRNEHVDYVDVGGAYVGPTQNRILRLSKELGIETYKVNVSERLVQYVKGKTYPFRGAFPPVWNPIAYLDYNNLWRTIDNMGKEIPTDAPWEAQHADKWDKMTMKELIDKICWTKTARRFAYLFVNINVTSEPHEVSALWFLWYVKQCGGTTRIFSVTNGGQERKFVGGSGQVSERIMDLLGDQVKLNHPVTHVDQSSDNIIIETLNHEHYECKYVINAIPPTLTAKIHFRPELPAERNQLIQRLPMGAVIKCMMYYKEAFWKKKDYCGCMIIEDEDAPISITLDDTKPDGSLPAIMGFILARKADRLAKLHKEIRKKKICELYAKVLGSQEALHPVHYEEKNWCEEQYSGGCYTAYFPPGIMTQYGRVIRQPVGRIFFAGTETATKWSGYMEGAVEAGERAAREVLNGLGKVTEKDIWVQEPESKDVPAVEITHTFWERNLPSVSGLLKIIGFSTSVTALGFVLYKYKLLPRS

[5] = biological target: T1, Amine oxidase [flavin-containing] B; experiment: Ratio of pargyline IC50 to compound IC50 for human recombinant MAO-B
[6] = biological target: T1, Amine oxidase [flavin-containing] B; experiment: Irreversible inhibition of human MAO-B at 2 times IC50 using p-tyramine as substrate assessed as H2O2 production after 0 to 60 mins
[7] = Metal chelating activity of the compound assessed as formation of copper complex at 35 uM by UV-Vis spectrophotometry; type: physicochemical
[8] = Cytotoxicity against human SH-SY5Y cells assessed as cell viability at 1 to 100 uM after 24 hrs by MTT assay; type: cell-based
[9] = Cytotoxicity against rat PC12 cells assessed as cell viability at 1 to 100 uM after 24 hrs by MTT assay; type: cell-based; conditions: pc-12, 24 h

Amyloid-beta precursor protein (Homo sapiens), sequence (P05067 whole entry): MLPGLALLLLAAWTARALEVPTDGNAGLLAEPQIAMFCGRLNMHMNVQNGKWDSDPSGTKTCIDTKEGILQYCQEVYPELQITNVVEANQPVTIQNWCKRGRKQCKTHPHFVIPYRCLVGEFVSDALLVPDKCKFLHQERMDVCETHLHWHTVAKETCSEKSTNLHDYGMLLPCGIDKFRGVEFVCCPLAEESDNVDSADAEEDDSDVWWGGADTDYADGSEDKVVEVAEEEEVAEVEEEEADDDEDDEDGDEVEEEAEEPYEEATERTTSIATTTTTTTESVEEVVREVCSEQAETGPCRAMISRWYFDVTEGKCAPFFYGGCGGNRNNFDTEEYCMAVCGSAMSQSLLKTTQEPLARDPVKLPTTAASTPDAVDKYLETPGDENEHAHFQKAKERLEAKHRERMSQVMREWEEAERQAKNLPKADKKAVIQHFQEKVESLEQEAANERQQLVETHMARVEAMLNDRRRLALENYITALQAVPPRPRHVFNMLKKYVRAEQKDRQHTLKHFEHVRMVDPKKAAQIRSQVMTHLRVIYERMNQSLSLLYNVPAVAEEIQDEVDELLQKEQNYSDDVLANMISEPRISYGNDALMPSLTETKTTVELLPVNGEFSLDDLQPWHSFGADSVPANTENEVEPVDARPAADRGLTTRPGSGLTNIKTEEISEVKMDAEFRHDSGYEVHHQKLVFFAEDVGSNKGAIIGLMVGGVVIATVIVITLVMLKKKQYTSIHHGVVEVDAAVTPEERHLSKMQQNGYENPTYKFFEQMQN

Structure (SMILES)	Papp at 16 h [1]	inhibition [2]	IC50 [3]	inhibition at 100 µM [4]	further results
CN1C(C(=O)Nc2ccccn2)=C(O)c2ccccc2S1(=O)=O [PIROXICAM]	1.72 ×10⁻⁶ cm/s	–	–	–	–
Cc1cc(=O)oc2cc(/N=C/c3ccc(O)cc3O)ccc12	–	50.3%	–	–	–
O=c1oc2cc(/N=C/c3ccc(O)cc3O)ccc2c2c1CCCC2	–	58.5%	3420 nM	22.6%	–
Cc1c(C)c2ccc(/N=C/c3ccccc3O)cc2[nH]c1=O	–	49.1%	1680 nM	17.7%	–
Cc1cc(=O)[nH]c2cc(/N=C/c3ccccc3O)ccc12	–	35.6%	12300 nM	54.2%	–
Cc1cc(=O)[nH]c2cc(NCc3ccccc3O)ccc12	–	32.6%	–	–	–
Cc1cc(=O)oc2cc(/N=C/c3ccccc3O)ccc12	–	44.8%	723 nM	47.2%	–
C[C@]12CC[C@@H]3c4ccc(O)cc4CC[C@H]3[C@@H]1CC[C@@H]2O [ESTRADIOL]	8.33 ×10⁻⁶ cm/s	–	–	–	–
O=c1oc2cc(/N=C/c3ccccc3O)ccc2c2c1CCC2	8.9 ×10⁻⁶ cm/s	52.9%	81 nM	3.5%	Ratio IC50 [5]: 2; inhibition (INH) [6]: Active; Activity [7]: Active; Activity [8]: Non-toxic; Activity [9]: Non-toxic
O=c1oc2cc(/N=C/c3ccccc3O)ccc2c2c1CCCC2	–	53.7%	841 nM	17.2%	–
Cc1c(Cl)c(=O)oc2cc(NCc3ccccc3O)ccc12	–	47.6%	–	–	–
Cc1c(C)c2ccc(/N=C/c3ccc(O)cc3O)cc2oc1=O	6.7 ×10⁻⁶ cm/s	57.6%	–	–	–
O=c1oc2cc(/N=C/c3ccc(O)cc3O)ccc2c2c1CCC2	4.7 ×10⁻⁶ cm/s	56.4%	217 nM	67.6%	–
O=c1oc2cc(NCc3ccccc3O)ccc2c2c1CCC2	–	41.6%	9330 nM	23.6%	–
COc1ccc(/C=N/c2ccc3c(C)cc(=O)oc3c2)c(O)c1	–	50.2%	–	–	–
NCCc1ccc(O)c(O)c1 [DOPAMINE]	0.83 ×10⁻⁶ cm/s	–	–	–	–
O=c1oc2cc(NCc3ccccc3O)ccc2c2c1CCCC2	–	43.7%	1240 nM	53.6%	–
Cc1c(C)c2ccc(/N=C/c3ccccc3O)cc2oc1=O	10.6 ×10⁻⁶ cm/s	53.9%	–	–	–
Cc1c(Cl)c(=O)oc2cc(/N=C/c3ccccc3O)ccc12	–	49.3%	–	–	–
Cc1cc(=O)oc2cc(NCc3ccccc3O)ccc12	–	36.1%	20100 nM	39.4%	–
Cc1c(C)c2ccc(NCc3ccccc3O)cc2oc1=O	12.3 ×10⁻⁶ cm/s	47.7%	–	–	–
Cc1c(Cl)c(=O)oc2cc(/N=C/c3ccc(O)cc3O)ccc12	–	60.2%	–	–	–
Cc1cc(=O)oc2cc(/N=C/c3ccc(Br)cc3O)ccc12	–	51.5%	–	–	–
C[C@]12C[C@H](O)[C@H]3[C@@H](CCC4=CC(=O)CC[C@@]43C)[C@@H]1CC[C@@H]2C(=O)CO [CORTICOSTERONE]	1.09 ×10⁻⁶ cm/s	–	–	–	–
Cc1ccc(/C=N/c2ccc3c(C)cc(=O)oc3c2)c(O)c1	–	49.4%	–	–	–
